Measurements published in patent publication US12495818B2, “Dihydrochalcones from Balanophora harlandii” (The Coca-Cola Company, priority 2018, dated 2025).

System: panelists
Assay: Sweetness enhancement taste panel (Example 2)
Type: in vivo, human
Details: 20 ppm CC-00474 + 250 ppm Rebaudioside M in acidic water (citric acid) vs control of 250 ppm Rebaudioside M and PG; served cold, sip and spit; all panelists agreed
Experimental: Samples were prepared with the following ingredients:
CC-00474 in PG was prepared in weighing boat and added to Reb M solution while stirring. The weighing boat was rinsed with Reb M solution. The solution was stirred visibly clear and the sample was poured into a glass bottle and stored at 4° C.
Bottles were removed from the refrigerator and about 25 ml of beverage was poured into 4 oz-plastic cups. Panelists were given mineral water to rinse their mouth before tasting and between tasting different samples. Unsalted crackers were also given to panelist to eat followed by rinsing their mouth with mineral water before tasting the next sample.
A sample of Rebaudioside M in acidic water and a sample of CC-00474 and Rebaudioside M in acidic water were given to panelists. Panelists were asked to evaluate the sweetness of samples and describe the difference of taste profile. Panelists were instructed to sip, evaluate the sweetness, and then spit the samples in cups provided for that purpose.

COc1cc(CCC(=O)c2c(O)cc(O[C@@H]3OC(CO)[C@@H](O)[C@H](O)C3O)cc2O)ccc1O (stereo partly drawn) [CC-00474, 3-methoxyphloretin-4′-O-β-D-glucoside]
sweetness of the sample compared with Rebaudioside M only: sweeter than the sample containing Rebaudioside M only
